From patent US8349577B2, “Method for evaluating blood-neural barrier permeability” (Research Foundation For Mental Hygiene, Inc., priority 2010, dated 2013)
Entries after “also recorded” stand apart in the source; their conditions may differ.

Columns and labels:
[1] = tested on: PLA2 activity in lumbar CSF; assay: Continuous fluorescence PLA2 activity assay with lumbar CSF (Bis-BODIPY FL C11-PC-labeled DOPC liposomes); format: biochemical, human; details: for Inhibition of PLA2 activity from lumbar CSF: 5 μL lumbar CSF incubated with inhibitor, FIGS. 3A-3C
Protocol: (§1) PLA2 activity assays were carried out in triplicates using a continuous fluorescent measurement. In a 96-well microplate, 5 μL lumbar CSF (or 10 μM recombinant sPLA2) was diluted in 90 μL PLA2 assay buffer (10 mM Tris-HCl, pH 7.4; 100 mM KCl; 5 mM CaCl2; 1 mM DTT). Then, 5 μL Bis-BODIPY® FL C11-PC-labeled 100% DOPC liposomes were added to each well and the microplate was immediately placed in a temperature controlled (30° C.) cytofluor multi-well plate reader series 4000 (PerSeptive Biosystems®, Foster City, Calif.). The fluorescence intensity was recorded over 90 min (91 cycles of 60 sec each) at 485 nm excitation and 530 nm emission. Finally, PLA2 activity was evaluated using linear curve fitting with Graph Prism 3.0 (GraphPad Software™, San Diego, Calif.).
(§2) Although there are currently twenty-two different PLA2 enzymes classified in five families (sPLA2, cPLA2, iPLA2, PAF-AH and lysosomal PLA2), there is currently no known tool for the specific characterization of each of these isozymes. Thus, to characterize the activity of each new PLA2 the current approach is to determine to which family the PLA2 enzyme belongs. For this purpose, a battery of inhibitors more or less specific against each PLA2 family is generally used to discriminate one family from another.
(§3) Stock solutions and serial dilutions of PLA2 inhibitors (AACOCF3, BEL and Thioetheramide-PC) were prepared in PLA2 assay buffer supplemented by 4.25 mM Triton X-100. Each assay was carried out in the absence or presence of 5 μL of the appropriate inhibitor.

[2] = tested on: recombinant sPLA2; assay: Continuous fluorescence PLA2 activity assay with recombinant sPLA2 (Bis-BODIPY FL C11-PC-labeled DOPC liposomes); format: biochemical; details: for Inhibition of PLA2 activity from recombinant sPLA2: recombinant sPLA2 incubated with inhibitor, FIGS. 3A-3C
Protocol: as §1, §2, §3

[3] = various concentrations of calcium, FIG. 3D

| Compound | Effect of increasing calcium concentration on PLA2 activity in lumbar CSF [1, 3] | Effect of increasing calcium concentration on recombinant sPLA2 activity [2, 3] | Inhibition of PLA2 activity from lumbar CSF [1] | Inhibition of PLA2 activity from recombinant sPLA2 [2] |
| --- | --- | --- | --- | --- |
| calcium | increase of PLA2 activity | increase of PLA2 activity | – | – |
| O=C1O/C(=C/Br)CCC1c1cccc2ccccc12 (centres unmarked) [BEL] | – | – | not and failed to do so | failed to do so |
| CCCCC/C=C\C/C=C\C/C=C\C/C=C\CCCC(=O)C(F)(F)F [AACOCF3] | – | – | not and failed to do so | failed to do so |
| CCCCCCCCCCCCCCCCSC[C@H](COP(=O)(O)OCC[N+](C)(C)C)NC(=O)CCCCCCCCCCCCCCC [thioetheramide-PC] | – | – | strongly inhibited; also recorded: dose-dependently inhibited | dose-dependently inhibited |
